{
  "source": "paper PMC9960553",
  "about": "““Dual Anta-Inhibitors” of the A2A Adenosine Receptor and Casein Kinase CK1delta: Synthesis, Biological Evaluation, and Molecular Modeling Studies” (Pharmaceuticals, 2023)",
  "key": {"CK1δ/ε": {"tested_on": "CK1δ/ε", "details": "read-out: IC50 as CK1δ/ε inhibitor; cited from earlier work"}, "CDK5": {"tested_on": "CDK5", "parameters": "method as in PMID 18698753, PMID 29289448", "details": "cited from earlier work"}, "truncated CK1δ": {"molecular_target": "T1, truncated CK1δ (Homo sapiens, UniProt P48730)", "T1 construct": "recombinant human, GST-tagged, aa 1-294; GST; purchased Merck Millipore, Merck KGaA, Darmstadt, Germany", "T1 sequence (P48730 1-294)": "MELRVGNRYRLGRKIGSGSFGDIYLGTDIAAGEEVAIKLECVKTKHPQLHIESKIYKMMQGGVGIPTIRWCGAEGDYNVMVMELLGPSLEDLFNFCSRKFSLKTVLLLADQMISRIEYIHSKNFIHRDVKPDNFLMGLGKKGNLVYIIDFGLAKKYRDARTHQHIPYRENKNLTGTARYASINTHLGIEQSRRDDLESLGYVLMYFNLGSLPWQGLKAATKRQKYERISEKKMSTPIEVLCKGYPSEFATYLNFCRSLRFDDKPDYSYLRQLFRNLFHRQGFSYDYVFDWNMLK", "test": "CK1δ luminescent kinase assay (Kinase-Glo)", "type": "biochemical", "details": "for remaining activity at 10 µM / remaining activity at 40 µM: CK1δ residual activity; for remaining activity at 10 µM: compound at 10 μM, read-out: % Residual Activity at 10 μM ± sd; for remaining activity at 40 µM: compound at 40 μM, read-out: % Residual Activity at 40 μM ± sd; for IC50: truncated CK1δ, ATP 2 μM, read-out: IC50 (μM), CK1δ inhibition", "method": "Luminescent assays were performed in white 96-well plates in a 40 μL final volume with buffer containing 50 mM HEPES (pH 7.5), 1 mM EDTA, 1 mM EGTA, and 15 mM MgCl2. In a typical assay, 10 μL of inhibitor solution (desired concentrations were obtained by diluting a starting 10 mM solution in DMSO) and 10 μL of enzyme solution were added to the well, followed by 20 μL of assay buffer containing casein substrate (Sigma-Aldrich, Merck KGaA, Darmstadt, Germany, casein solution from bovine milk, 5% in water) and ATP, at a final concentration of 0.05% and 2 μM, respectively. […] After 60 min of incubation at 30 °C, the enzymatic reactions were stopped with the addition of 40 μL of KinaseGlo reagent. […] Data were analyzed using Excel and GraphPad Prism software (version 8.0)."}, "human recombinant A2AAR [1]": {"molecular_target": "T2, human recombinant A2AAR (Homo sapiens, UniProt P29274)", "T2 construct": "expressed in transfected cells; host or cells: CHO cells (membranes)", "T2 sequence (P29274 whole entry)": "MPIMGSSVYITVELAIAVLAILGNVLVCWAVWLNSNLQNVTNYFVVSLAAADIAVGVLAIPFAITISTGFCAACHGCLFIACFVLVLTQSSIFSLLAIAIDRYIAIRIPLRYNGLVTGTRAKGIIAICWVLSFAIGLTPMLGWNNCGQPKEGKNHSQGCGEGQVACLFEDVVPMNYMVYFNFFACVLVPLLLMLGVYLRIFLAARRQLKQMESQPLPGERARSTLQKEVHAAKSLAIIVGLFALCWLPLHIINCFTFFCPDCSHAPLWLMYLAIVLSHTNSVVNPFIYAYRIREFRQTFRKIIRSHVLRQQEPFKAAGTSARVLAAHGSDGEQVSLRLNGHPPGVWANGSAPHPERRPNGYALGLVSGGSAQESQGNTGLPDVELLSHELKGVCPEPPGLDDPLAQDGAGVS", "details": "read-out: KiA2AAR; cited from earlier work"}, "human recombinant A1AR": {"molecular_target": "T3, human recombinant A1AR (Homo sapiens, UniProt P30542)", "T3 construct": "expressed in transfected cells; host or cells: CHO cells (membranes)", "T3 sequence (P30542 1-326)": "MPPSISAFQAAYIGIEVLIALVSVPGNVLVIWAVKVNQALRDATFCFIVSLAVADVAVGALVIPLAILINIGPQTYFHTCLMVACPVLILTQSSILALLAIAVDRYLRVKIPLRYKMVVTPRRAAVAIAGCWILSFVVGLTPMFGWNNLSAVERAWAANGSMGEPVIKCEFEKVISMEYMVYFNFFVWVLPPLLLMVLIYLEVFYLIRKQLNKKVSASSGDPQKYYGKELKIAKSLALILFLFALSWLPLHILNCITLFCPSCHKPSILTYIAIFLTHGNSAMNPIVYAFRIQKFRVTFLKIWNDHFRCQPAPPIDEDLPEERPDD", "test": "[3H]CCPA displacement binding in CHO cell membranes", "details": "mean ± standard error, read-out: KiA1", "method": "(§1) Compounds 5, 6, 8–12, 15–21, and 23–25 were evaluated in binding studies at human recombinant A1, A2A, and A3 ARs, stably transfected in Chinese hamster ovary (CHO) cells. [^3H]CCPA (2-chloro-N^6-cyclopentylAdo), [^3H]NECA (5’-N-ethylcarboxamidoAdo), and [^3H]HEMADO (2-hexynyl-N^6-methylAdo) were used as the, respective, radioligands. All compounds were also tested at the A2BARs by inhibition of NECA-stimulated adenylyl cyclase activity, using the GloSensor cAMP assay, but none of them were active at a concentration up to 30 μM [35]. The results, together with the data of the reference adenine derivative 1, are reported in Table 2 as Ki values in μM (± standard errors). In the table, the IC50 values (μM) of the CK1δ inhibitory activity are also indicated. […] We called the compounds endowed with receptor antagonist behavior combined with an enzyme inhibitory activity “dual anta-inhibitors”.\n(§2) All of the pharmacological methods followed the procedures as described earlier. In brief, the membranes for radioligand binding were prepared from CHO cells stably transfected with human adenosine receptor subtypes through two centrifugations at different speeds. The first low-speed […] centrifugation allowed for the removal of cell fragments and nuclei, while the second, performed at high speed (100,000× g), allowed for the precipitation of the crude membrane fractions. The resulting membrane pellet was resuspended in the buffer used for the respective binding experiments, frozen in liquid nitrogen, and stored in aliquots at −80 °C.\n(§3) The binding affinity of the novel compounds was evaluated using radioligand competition experiments in CHO cells stably expressing hA1AR, hA2AAR, hA3AR subtypes, as early described. Results were expressed as Ki values (dissociation constants), which were calculated with the program GraphPad (GraphPad Software, San Diego, CA, USA). Each concentration was tested three–five times in duplicate and the values given as the mean ± standard error (S.E.). The potency of compounds at the hA2BAR (expressed on CHO cells) was determined through a GloSensor cAMP Assay."}, "human recombinant A2AAR [2]": {"molecular_target": "T2, human recombinant A2AAR", "test": "[3H]NECA displacement binding in CHO cell membranes", "details": "mean ± standard error, read-out: KiA2A", "method": "as §1, §2, §3"}, "human recombinant A3AR": {"molecular_target": "T4, human recombinant A3AR (Homo sapiens, UniProt P0DMS8)", "T4 construct": "expressed in transfected cells; host or cells: CHO cells (membranes)", "T4 sequence (P0DMS8 1-318)": "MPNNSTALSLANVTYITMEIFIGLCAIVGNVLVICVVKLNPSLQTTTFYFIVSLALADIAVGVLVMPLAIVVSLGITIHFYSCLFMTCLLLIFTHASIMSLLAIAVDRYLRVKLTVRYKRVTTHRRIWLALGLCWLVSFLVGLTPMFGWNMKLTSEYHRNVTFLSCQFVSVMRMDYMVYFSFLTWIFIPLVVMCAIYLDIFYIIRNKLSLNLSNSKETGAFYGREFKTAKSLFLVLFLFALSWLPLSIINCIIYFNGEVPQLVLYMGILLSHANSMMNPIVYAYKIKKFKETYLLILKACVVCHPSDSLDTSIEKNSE", "test": "[3H]HEMADO displacement binding in CHO cell membranes", "details": "mean ± standard error, read-out: KiA3", "method": "as §1, §2, §3"}, "hA2AAR": {"molecular_target": "T5, hA2AAR (Homo sapiens, UniProt P29274)", "T5 construct": "expressed in transfected cells; host or cells: CHO cells stably expressing hA2AAR and pGloSensor-22F", "T5 sequence (P29274 whole entry)": "as the sequence (P29274 whole entry) above", "test": "Antagonism of NECA-induced cAMP accumulation in CHO cells, GloSensor cAMP assay", "type": "cell-based", "details": "CHO cells stably expressing hA2AAR; read-out: IC50, inhibition of NECA effect on cAMP production", "method": "In order to confirm the antagonist activity of the dual anta-inhibitors 12 and 17, they were evaluated in a functional assay in CHO cells stably expressing the hA2AAR. Firstly, they were tested alone, and […] in terms of cAMP stimulation was observed. […] Both 12 and 17 were able to inhibit the effect of NECA on cAMP production, thus resulting in A2AAR antagonists.\nFunctional activity was determined as described earlier. Briefly, cells stably expressing both the hA2A or hA2B AR and the plasmid pGloSensor-22F coding for the biosensor were cultured. This biosensor encodes for a genetically modified form of firefly luciferase into which a cAMP-binding protein moiety was inserted. The desiderate cell number was harvested and incubated for 2 h at r.t., with 3% v/v GloSensor cAMP reagent stock solution, 10% FBS, and 87% CO2 independent medium. Cells were dispensed in the wells of a 384-well plate and the reference agonist NECA or the under-study compounds were added at different concentrations. Since the compounds were unable to stimulate cAMP production, they were studied as antagonists. The antagonist profile was evaluated by assessing the ability to counteract an NECA-induced increase in cAMP accumulation. Responses were expressed as a percentage of the maximal relative luminescence units (RLU). Concentration–response curves were fitted by a nonlinear regression using Prism software. […]"}, "CK1δ": {"tested_on": "CK1δ", "details": "cited from earlier work"}, "CK1ε": {"tested_on": "CK1ε", "details": "cited from earlier work"}},
  "note": "Where two headings read alike, the source gives them in different places.",
  "data": [
    {"smiles": "CC[C@H](CO)Nc1nc(Nc2ccc(-c3cccnc3)cc2)c2ncn(C(C)C)c2n1", "note": "[(R)-DRF053]", "values": [
      {"measurement": "IC50", "setting": "CK1δ/ε", "result": 0.014, "unit": "µM"},
      {"measurement": "IC50", "setting": "CDK5", "result": 0.08, "unit": "µM"}
    ]},
    {"smiles": "CCn1cnc2c(N)nc(Cl)nc21", "note": "[Compound 3]", "values": [
      {"measurement": "remaining activity at 10 µM", "setting": "truncated CK1δ", "result": 71, "unit": "%"},
      {"measurement": "remaining activity at 40 µM", "setting": "truncated CK1δ", "result": 41, "unit": "%"},
      {"measurement": "IC50", "setting": "truncated CK1δ", "result": "> 10", "unit": "µM"},
      {"measurement": "Ki", "setting": "human recombinant A2AAR [1]", "result": 3, "unit": "µM"}
    ]},
    {"smiles": "CN(C)c1nc(N)c2ncn(C3CCCC3)c2n1", "note": "[Compound 12, 9-Cyclopentyl-N^2,N^2-dimethyl-9H-purine-2,6-diamine]", "values": [
      {"measurement": "remaining activity at 10 µM", "setting": "truncated CK1δ", "result": "27 ± 4", "unit": "%"},
      {"measurement": "remaining activity at 40 µM", "setting": "truncated CK1δ", "result": "19 ± 9.4", "unit": "%"},
      {"measurement": "IC50", "setting": "truncated CK1δ", "result": "1.75 ± 0.2", "unit": "µM"},
      {"measurement": "Ki", "setting": "human recombinant A1AR", "result": "3.34 ± 0.658", "unit": "µM"},
      {"measurement": "Ki", "setting": "human recombinant A2AAR [2]", "result": "0.123 ± 0.002", "unit": "µM"},
      {"measurement": "Ki", "setting": "human recombinant A3AR", "result": "2.88 ± 0.695", "unit": "µM"},
      {"measurement": "IC50", "setting": "hA2AAR", "result": "0.418 ± 0.098", "unit": "µM"}
    ]},
    {"smiles": "CN(C)c1nc(NCc2nc3ccccc3[nH]2)c2ncn(C3CCCC3)c2n1", "note": "[Compound 17, N^6-((1H-benzo[d]imidazol-2-yl)methyl)-9-cyclopentyl-N^2,N^2-dimethyl-9H-purine-2,6-diamine]", "values": [
      {"measurement": "remaining activity at 10 µM", "setting": "truncated CK1δ", "result": "34 ± 5", "unit": "%"},
      {"measurement": "remaining activity at 40 µM", "setting": "truncated CK1δ", "result": "22 ± 1", "unit": "%"},
      {"measurement": "IC50", "setting": "truncated CK1δ", "result": "0.59 ± 0.2", "unit": "µM"},
      {"measurement": "Ki", "setting": "human recombinant A1AR", "result": "2.9 ± 0.648", "unit": "µM"},
      {"measurement": "Ki", "setting": "human recombinant A2AAR [2]", "result": "0.076 ± 0.017", "unit": "µM"},
      {"measurement": "Ki", "setting": "human recombinant A3AR", "result": "1.15 ± 0.107", "unit": "µM"},
      {"measurement": "IC50", "setting": "hA2AAR", "result": "0.069 ± 0.018", "unit": "µM"}
    ]},
    {"smiles": "Fc1cccc(-n2cnc3c(NCc4nc5ccc(Cl)cc5[nH]4)nc(N4CCNCC4)nc32)c1", "note": "[SR-2890]", "values": [
      {"measurement": "IC50", "setting": "CK1δ/ε", "result": 0.004, "unit": "µM"}
    ]},
    {"smiles": "c1ccc2[nH]c(CNc3nc(N4CCOCC4)nc4c3ncn4-c3ccsc3)nc2c1", "note": "[SR-653234]", "values": [
      {"measurement": "IC50", "setting": "CK1δ", "result": 0.16, "unit": "µM"},
      {"measurement": "IC50", "setting": "CK1ε", "result": 0.54, "unit": "µM"}
    ]}
  ]
}
